Test results published in the NIST ThermoML archive (doi:10.1016/j.tca.2016.01.009).
± gives the expanded uncertainty stated by the source.

Details: Crystal; visual observation

OCc1cn(Cc2ccccc2)nn1 [(1-benzyl-1H-1,2,3-triazol-4-yl)methanol]
Normal melting temperature: 78.70 ± 0.48 °C
